# Laboratory results: patent US20110003865A1, “NOVEL 2-DIETHYLAMINO-3-AMIDO-6-AMINO-PYRIDINE DERIVATIVES USEFUL AS POTASSIUM CHANNEL ACTIVATORS” (priority 2007, published 2011)
# Target: T1, human Kv72+3 channels (Homo sapiens, UniProt O43525+O43526)
# T1 construct: expressed in transfected cells; host or cells: HEK293
# Assay: Patch-clamp, HEK293 cells stably expressing human Kv7.2+3 channels
# Assay type: cell-based
# Settings: conc. 0.03 μM, −30 mV, 20 ms; current relative to baseline current defined as 100%
# From the text: The effect obtained by these channel activators is described as a percentage increase in baseline current at a given concentration. The baseline current is defined as 100%, and an increase in current is expressed relative to this, i.e. an increase from 1 nA to 1.2 nA is reported as 120%.
# T1 sequence (O43526 whole entry): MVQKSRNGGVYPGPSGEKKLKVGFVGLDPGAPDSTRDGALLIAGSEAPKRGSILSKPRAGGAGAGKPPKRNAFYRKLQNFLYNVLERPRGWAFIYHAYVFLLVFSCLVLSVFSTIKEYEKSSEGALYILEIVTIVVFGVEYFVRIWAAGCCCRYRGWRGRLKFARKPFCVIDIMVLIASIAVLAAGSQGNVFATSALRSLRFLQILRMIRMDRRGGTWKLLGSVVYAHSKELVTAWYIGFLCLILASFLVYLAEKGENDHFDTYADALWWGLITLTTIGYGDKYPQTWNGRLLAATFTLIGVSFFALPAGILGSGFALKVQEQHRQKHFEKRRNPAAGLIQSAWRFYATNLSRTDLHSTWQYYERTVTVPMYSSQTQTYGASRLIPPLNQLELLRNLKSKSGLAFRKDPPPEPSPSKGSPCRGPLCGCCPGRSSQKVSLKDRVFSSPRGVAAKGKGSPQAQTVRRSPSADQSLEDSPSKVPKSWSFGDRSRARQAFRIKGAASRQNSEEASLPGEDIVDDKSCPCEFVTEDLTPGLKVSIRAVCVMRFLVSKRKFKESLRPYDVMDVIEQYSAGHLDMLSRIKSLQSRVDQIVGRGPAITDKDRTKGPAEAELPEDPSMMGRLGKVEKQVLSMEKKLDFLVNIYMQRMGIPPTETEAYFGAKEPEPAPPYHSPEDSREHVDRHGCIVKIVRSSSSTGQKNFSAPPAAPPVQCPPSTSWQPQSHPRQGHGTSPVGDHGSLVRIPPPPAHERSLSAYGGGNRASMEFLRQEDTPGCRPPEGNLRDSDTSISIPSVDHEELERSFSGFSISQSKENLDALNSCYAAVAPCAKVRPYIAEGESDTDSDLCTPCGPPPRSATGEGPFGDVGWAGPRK
# T1 sequence (O43525 whole entry): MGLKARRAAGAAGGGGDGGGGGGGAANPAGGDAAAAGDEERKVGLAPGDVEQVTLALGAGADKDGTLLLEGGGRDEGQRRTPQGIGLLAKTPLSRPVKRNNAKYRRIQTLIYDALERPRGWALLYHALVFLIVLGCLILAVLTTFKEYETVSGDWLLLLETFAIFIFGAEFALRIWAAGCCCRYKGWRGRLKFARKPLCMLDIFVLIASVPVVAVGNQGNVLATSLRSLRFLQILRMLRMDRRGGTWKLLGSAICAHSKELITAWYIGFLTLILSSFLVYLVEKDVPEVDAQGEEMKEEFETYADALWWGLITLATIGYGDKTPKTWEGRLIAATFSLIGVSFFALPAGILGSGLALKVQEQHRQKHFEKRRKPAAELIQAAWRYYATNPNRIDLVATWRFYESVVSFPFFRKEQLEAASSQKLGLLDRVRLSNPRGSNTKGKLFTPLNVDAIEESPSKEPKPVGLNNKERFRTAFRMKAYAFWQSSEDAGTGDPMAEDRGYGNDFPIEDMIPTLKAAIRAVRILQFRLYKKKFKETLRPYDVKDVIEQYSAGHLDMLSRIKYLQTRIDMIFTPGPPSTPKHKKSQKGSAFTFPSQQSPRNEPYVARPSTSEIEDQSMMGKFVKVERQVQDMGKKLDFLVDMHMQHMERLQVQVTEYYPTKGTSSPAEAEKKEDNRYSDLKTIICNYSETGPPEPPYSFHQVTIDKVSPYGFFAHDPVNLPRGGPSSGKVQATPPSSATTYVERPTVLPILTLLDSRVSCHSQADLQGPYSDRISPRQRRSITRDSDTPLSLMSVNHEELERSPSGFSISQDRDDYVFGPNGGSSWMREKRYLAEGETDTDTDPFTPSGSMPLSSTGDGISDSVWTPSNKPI
row,Compound,IK (%)
1,"CCN(CC)c1nc(NCc2ccc(F)cc2)ccc1NC(=O)Cc1cc(F)cc(F)c1 [Compound 1, N-[2-Diethylamino-6-(4-fluoro-benzylamino)-pyridin-3-yl]-2-(3,5-difluoro-phenyl)-acetamide]",1247
2,"CCN(CC)c1nc(NCc2ccc(F)cc2)ccc1NC(=O)Cc1ccc(C(F)(F)F)c(F)c1 [Compound 3, N-[2-Diethylamino-6-(4-fluoro-benzylamino)-pyridin-3-yl]-2-(3-fluoro-4-trifluoromethyl-phenyl)-acetamide]",282
3,"CCN(CC)c1nc(NCc2ccc(F)cc2)ccc1NC(=O)CC(C)(C)C [Compound 9, N-[2-Diethylamino-6-(4-fluoro-benzylamino)-pyridin-3-yl]-3,3-dimethyl-butyramide]",550

# Now from value to compound:
row,IK (%),Compound
1,520,"CCN(CC)c1nc(NCc2ccc(F)cc2)ccc1NC(=O)[C@@H]1C[C@H]1c1ccccc1 (relative stereo) [Compound 7, trans-2-Phenyl-cyclopropanecarboxylic acid [2-diethylamino-6-(4-fluoro-benzylamino)-pyridin-3-yl]-amide]"
2,334,"CCN(CC)c1nc(NCc2ccc(F)cc2)ccc1NC(=O)[C@@H](C)c1ccccc1 [Compound 4, (S)—N-[2-Diethylamino-6-(4-fluoro-benzylamino)-pyridin-3-yl]-2-phenyl-propionamide]"
